These results are taken from PubChem BioAssay (NCI).

SMILES strings stand for the structures.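 These data come from cells grown in 96-well plates and exposed to compound for 48 hours at five concentrations. The concentration for 50% growth inhibition is given as GI50. TGI denotes the concentration required for complete inhibition of growth.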

What all share (test): growth of human tumour cells (NCI), 48 h
Experiment [1] deals with MALME-3M melanoma.
Experiment [2] relates to SNB-19 CNS.
For experiment [3], the system named is SNB-75 CNS.
Experiment [4] relates to UO-31 renal.
Experiment [5] deals with MDA-MB-435.
For experiment [6], the system named is HCC-2998 colon.
Experiment [7] relates to HT29 colon.
Experiment [8] relates to SK-MEL-28 melanoma.
Experiment [9] deals with K-562 leukemia.
Experiment [10] relates to U251 CNS.

For the compound `COc1cc(OC)cc(-c2n/c(=C\c3c(O)[nH]c4ccc(OC)cc34)cc3c2=Nc2ccccc2-3)c1`, the GI50 in [1] was 2270 nM; in experiment [2], 5.82 µM; in [3], 18.5 µM; in experiment [4] it was 41.6 µM; in experiment [5], 4.12 µM; in experiment [6], 1870 nM. Also, the GI50 in [7] was 2060 nM; in experiment [8], 13.5 µM; in experiment [9], 2650 nM; in experiment [10], 1930 nM. The TGI in [1] is 5.42 µM; in experiment [2], 27.7 µM; in experiment [3], 34.3 µM; in experiment [4] it was > 100 µM; in experiment [5] it was 29.3 µM; in experiment [6] it was 3.51 µM. Besides, the TGI is 4.15 µM in experiment [7], 33.4 µM in experiment [8], 6.64 µM in [9] and 3.84 µM in [10].
As to `NC(CCOCCP(=O)(O)O)C(=O)O` (stereo unspecified), the TGI in [2], in experiment [3], in experiment [4], in experiment [5], in experiment [6] and in [7] was > 100 µM throughout. Moreover, the TGI in experiment [8], in experiment [9] and in experiment [10] was > 100 µM in each case.
As to `COc1c2c(c3ccccc3c1O)C1C=CC2C1` (stereo unspecified), the TGI is 18.8 µM in experiment [1]; 17.6 µM in experiment [4]; 29.7 µM in experiment [6]; 39.2 µM in experiment [7]; 37.9 µM in experiment [8]; 23.9 µM in experiment [10].
In the case of `O=C(N/N=C\c1ccc(N(CCCl)CCCl)cc1[N+](=O)[O-])c1cccnc1`, the GI50 is > 100000 nM in [1]; > 100 µM in experiment [2]; > 100 µM in experiment [3]; > 100 µM in experiment [4]; > 100 µM in [5]; > 100000 nM in experiment [6]. Besides, the GI50 is > 100000 nM in experiment [7], > 100 µM in experiment [8], > 100000 nM in [9] and > 100000 nM in experiment [10]. Besides, the TGI in experiment [1], in [2], in experiment [3], in experiment [4], in experiment [5] and in experiment [6] was > 100 µM each time. Further, the TGI in [7], in experiment [8], in experiment [9] and in experiment [10] was > 100 µM in each case.
Consider `CCN(CC)CCN1C(=O)c2c(c3c4ccccc4[nH]c3c3ccc4ccccc4c23)C1=O`, for which the GI50 in experiment [1] was 1790 nM; in [2], 1.5 µM; in experiment [3], 1.17 µM; in experiment [4], 1.36 µM; in experiment [5], 1.77 µM; in [6], 1530 nM. Besides, the GI50 was 1.74 µM in experiment [8], 1820 nM in [9] and 1530 nM in experiment [10]. Also, the TGI in experiment [1] came to 3.46 µM; in experiment [2] it was 2.88 µM; in experiment [3], 2.4 µM; in [4], 2.66 µM; in experiment [5], 3.17 µM; in [6] it was 3.08 µM. In addition, the TGI was 3.18 µM in [8], 5.32 µM in experiment [9] and 3.06 µM in experiment [10].
In the case of `COC1=CC(=O)CC(C)C12Oc1c(Cl)c(OC)cc(OC)c1C2=O` (stereo unspecified), the TGI in experiment [1] is > 100 µM; in experiment [2], > 100 µM; in [3], 28.5 µM; in experiment [4], > 88.1 µM; in experiment [5] it was 6.42 µM; in experiment [6], > 100 µM. For the same compound, the TGI was > 100 µM in [7], > 100 µM in experiment [8], > 66.4 µM in [9] and > 100 µM in [10].
Consider `C=C1C(=O)O[C@@H]2[C@H](O)[C@@H](C)[C@@H]3C=CC(=O)[C@@]3(C)[C@@H](OC(=O)/C(C)=C/C)[C@H]12`, for which the TGI came to 1.49 µM in experiment [1]; 6.92 µM in experiment [2]; 3.63 µM in experiment [3]; 10.1 µM in [4]; 4.19 µM in experiment [6]; 4.15 µM in experiment [7]. Moreover, the values for the TGI in experiment [8], in experiment [9] and in experiment [10] were 1.34 µM, 3.48 µM and 5.26 µM, respectively.
As to `Cc1ccc(C2=C(C#N)C(N)OC3=C2COc2ccccc23)cc1` (stereo unspecified), the TGI was 82.1 µM in experiment [1]; 41.9 µM in experiment [2]; 33.7 µM in experiment [4]; > 100 µM in experiment [5]; > 100 µM in experiment [6]; > 100 µM in experiment [7]. Also, the TGI in [8] is > 100 µM; in [9], > 100 µM; in experiment [10], 51 µM.
